Assay results from ChEMBL document CHEMBL5465560, “Selectivity Literature for EUbOPEN Chemogenomic Library” (2024).

Key:
[1] = target: T1, Rhodopsin kinase GRK1 (Homo sapiens) (UniProt Q15835); experiment: Selectivity interaction (KinomeScan (DiscoverX)) EUB0001049a GRK1; conditions: at 1 µM
T1 sequence (whole entry): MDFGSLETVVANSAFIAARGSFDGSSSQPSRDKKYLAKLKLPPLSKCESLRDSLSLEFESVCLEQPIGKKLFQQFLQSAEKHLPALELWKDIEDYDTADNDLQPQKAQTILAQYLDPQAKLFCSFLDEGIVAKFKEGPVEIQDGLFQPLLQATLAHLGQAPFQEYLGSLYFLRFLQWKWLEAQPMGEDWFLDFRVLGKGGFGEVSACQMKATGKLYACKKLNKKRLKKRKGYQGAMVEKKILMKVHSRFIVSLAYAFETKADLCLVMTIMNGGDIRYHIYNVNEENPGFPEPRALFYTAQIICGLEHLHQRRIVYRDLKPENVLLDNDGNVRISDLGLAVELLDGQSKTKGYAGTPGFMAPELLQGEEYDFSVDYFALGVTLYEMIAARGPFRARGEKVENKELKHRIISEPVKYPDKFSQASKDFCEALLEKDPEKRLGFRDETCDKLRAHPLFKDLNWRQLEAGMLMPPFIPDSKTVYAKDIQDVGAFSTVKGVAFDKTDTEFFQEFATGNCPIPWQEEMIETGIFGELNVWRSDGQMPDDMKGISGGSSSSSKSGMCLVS

[2] = target: T2, Mitogen-activated protein kinase 12 (Homo sapiens) (UniProt P53778); experiment: Selectivity interaction (KinomeScan (DiscoverX)) EUB0001049a MAPK12; conditions: at 1 µM
T2 sequence (whole entry): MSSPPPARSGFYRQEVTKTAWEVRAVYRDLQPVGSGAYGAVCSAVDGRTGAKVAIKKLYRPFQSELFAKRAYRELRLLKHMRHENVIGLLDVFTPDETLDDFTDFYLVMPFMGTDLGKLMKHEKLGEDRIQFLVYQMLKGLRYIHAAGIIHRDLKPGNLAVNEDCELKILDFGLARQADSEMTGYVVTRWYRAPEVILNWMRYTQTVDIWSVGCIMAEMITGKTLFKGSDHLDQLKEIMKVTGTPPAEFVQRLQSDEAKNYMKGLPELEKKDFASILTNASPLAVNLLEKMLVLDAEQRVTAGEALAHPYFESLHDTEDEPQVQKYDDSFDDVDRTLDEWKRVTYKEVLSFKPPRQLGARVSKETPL

[3] = target: Calcium/calmodulin-dependent protein kinase kinase 2 (Homo sapiens) (UniProt Q96RR4); experiment: Selectivity interaction (KinomeScan (DiscoverX)) EUB0000666a CAMKK2; conditions: at 10 µM
Sequence of Calcium/calmodulin-dependent protein kinase kinase 2 (Homo sapiens) (Q96RR4 2-588 limits assumed): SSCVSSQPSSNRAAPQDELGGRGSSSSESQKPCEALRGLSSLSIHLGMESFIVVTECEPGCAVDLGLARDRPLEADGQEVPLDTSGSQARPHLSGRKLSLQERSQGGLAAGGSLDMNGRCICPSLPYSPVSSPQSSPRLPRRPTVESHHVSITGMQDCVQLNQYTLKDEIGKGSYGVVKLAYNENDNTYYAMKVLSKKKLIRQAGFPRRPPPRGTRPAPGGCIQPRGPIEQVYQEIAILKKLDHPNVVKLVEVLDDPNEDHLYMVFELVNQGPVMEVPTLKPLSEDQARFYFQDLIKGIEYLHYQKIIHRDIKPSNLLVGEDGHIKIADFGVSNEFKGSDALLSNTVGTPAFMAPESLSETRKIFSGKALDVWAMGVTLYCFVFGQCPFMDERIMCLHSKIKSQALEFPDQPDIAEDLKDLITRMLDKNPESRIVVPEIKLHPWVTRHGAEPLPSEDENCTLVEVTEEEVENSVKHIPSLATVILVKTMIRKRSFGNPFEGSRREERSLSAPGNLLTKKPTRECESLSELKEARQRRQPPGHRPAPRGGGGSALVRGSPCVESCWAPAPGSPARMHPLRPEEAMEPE

[4] = target: Transcription intermediary factor 1-alpha (Homo sapiens) (UniProt O15164); experiment: Selectivity interaction (Human bromodomain panel (DSF assay)) EUB0000233b TRIM24
Sequence of Transcription intermediary factor 1-alpha (Homo sapiens) (O15164 whole entry): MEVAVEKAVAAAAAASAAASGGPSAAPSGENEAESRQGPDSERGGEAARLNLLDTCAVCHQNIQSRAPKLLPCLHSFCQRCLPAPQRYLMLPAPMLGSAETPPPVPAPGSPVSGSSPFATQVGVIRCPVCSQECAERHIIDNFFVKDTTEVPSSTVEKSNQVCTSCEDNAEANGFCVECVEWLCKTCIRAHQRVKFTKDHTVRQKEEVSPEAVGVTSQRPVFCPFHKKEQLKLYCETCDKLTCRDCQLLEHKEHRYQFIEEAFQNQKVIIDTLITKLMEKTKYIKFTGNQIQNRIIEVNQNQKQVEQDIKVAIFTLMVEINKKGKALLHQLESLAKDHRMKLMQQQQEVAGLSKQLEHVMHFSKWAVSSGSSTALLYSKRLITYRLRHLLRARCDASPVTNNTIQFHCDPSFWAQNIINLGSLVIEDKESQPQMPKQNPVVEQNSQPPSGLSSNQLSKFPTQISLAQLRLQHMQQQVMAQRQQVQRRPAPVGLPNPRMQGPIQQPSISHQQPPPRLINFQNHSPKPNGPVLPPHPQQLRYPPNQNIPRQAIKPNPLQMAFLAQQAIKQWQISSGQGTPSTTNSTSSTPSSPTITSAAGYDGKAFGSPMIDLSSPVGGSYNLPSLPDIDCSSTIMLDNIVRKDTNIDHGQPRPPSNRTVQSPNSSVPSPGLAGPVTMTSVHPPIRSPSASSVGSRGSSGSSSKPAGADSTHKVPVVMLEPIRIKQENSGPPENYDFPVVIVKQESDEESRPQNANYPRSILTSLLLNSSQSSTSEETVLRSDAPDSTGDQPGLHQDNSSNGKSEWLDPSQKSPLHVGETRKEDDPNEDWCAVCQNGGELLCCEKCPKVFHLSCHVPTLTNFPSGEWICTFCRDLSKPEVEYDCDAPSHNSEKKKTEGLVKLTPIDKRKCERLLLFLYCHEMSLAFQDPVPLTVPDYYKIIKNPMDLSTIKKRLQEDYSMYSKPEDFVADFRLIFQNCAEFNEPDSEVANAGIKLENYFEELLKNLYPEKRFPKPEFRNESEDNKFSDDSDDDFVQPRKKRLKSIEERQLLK

[5] = target: Vasopressin V2 receptor (Homo sapiens, UniProt P30518); experiment: Selectivity interaction (Vasopressin V2 receptor binding assay, human recombinant ) EUB0000877a AVPR2
Sequence of Vasopressin V2 receptor (P30518 whole entry): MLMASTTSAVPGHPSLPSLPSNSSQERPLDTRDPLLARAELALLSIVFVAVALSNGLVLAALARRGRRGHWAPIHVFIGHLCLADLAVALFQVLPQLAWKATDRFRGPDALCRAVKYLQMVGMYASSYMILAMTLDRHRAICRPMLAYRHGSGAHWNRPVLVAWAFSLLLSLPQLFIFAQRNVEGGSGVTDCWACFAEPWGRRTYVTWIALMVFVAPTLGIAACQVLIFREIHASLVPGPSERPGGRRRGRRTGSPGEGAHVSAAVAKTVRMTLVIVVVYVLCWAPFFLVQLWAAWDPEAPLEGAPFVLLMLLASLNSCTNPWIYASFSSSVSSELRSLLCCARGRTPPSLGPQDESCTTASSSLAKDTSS

[6] = target: Hepatocyte growth factor-like protein (Homo sapiens) (UniProt P26927); experiment: Selectivity interaction (KinomeScan (DiscoverX)) EUB0000595a MST1; conditions: at 10 µM
[7] = target: T3, Ephrin type-A receptor 3 (Homo sapiens) (UniProt P29320); experiment: Selectivity interaction (KinomeScan (DiscoverX)) EUB0000595a EPHA3; conditions: at 10 µM
T3 sequence (whole entry): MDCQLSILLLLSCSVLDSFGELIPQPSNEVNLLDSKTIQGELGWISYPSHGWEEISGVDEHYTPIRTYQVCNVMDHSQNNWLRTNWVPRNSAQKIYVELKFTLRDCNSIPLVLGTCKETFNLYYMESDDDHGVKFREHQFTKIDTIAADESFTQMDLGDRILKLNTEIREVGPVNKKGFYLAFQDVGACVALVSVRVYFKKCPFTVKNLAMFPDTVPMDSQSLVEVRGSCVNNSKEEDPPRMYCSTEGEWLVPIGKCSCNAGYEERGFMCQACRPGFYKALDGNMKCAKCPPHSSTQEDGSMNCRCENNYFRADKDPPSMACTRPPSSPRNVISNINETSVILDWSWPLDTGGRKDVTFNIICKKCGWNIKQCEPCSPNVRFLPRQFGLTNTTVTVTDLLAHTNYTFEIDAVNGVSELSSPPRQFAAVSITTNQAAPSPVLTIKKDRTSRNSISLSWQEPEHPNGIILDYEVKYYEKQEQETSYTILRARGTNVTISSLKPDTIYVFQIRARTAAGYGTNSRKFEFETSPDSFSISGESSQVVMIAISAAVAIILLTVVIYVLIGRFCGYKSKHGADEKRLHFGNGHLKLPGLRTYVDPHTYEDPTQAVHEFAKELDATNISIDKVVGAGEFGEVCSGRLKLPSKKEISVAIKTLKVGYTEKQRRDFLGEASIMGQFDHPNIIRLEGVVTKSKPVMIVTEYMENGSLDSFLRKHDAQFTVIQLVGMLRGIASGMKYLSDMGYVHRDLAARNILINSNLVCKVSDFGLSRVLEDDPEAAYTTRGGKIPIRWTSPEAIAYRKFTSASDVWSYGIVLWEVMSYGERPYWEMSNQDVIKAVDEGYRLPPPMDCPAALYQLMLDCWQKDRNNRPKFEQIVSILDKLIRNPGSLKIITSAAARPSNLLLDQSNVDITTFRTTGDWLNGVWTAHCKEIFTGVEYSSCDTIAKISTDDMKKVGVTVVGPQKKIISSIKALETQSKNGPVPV

[8] = target: Mitogen-activated protein kinase kinase kinase kinase 1 (Homo sapiens) (UniProt Q92918); experiment: Selectivity interaction (KinomeScan (DiscoverX)) EUB0000092b MAP4K1; conditions: at 10 µM
Sequence of Mitogen-activated protein kinase kinase kinase kinase 1 (Homo sapiens) (Q92918 whole entry, looked up): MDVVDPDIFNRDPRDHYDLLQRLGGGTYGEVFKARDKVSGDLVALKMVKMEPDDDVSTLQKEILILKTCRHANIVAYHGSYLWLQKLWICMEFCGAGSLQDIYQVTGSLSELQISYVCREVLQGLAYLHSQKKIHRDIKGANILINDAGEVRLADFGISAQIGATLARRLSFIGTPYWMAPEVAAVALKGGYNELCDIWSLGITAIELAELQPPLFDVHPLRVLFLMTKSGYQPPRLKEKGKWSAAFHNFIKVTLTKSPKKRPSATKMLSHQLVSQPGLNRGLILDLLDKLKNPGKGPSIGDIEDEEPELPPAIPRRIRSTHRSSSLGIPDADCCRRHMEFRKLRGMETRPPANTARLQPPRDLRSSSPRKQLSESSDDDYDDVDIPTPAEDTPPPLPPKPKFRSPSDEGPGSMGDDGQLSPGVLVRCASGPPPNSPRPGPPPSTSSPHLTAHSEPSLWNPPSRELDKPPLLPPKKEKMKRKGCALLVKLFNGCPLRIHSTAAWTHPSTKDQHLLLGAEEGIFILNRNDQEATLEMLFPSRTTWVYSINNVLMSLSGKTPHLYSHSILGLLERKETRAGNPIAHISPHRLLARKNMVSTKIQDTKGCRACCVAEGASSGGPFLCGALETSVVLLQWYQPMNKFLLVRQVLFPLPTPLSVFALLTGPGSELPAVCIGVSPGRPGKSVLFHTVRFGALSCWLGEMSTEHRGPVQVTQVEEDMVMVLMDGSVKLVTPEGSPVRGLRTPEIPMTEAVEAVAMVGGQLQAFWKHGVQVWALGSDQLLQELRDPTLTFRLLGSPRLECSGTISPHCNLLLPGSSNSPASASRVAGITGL

[9] = target: Cyclin-dependent kinase 1 (Homo sapiens) (UniProt P06493); experiment: Selectivity interaction (Kinase screening (Nanosyn)) EUB0000604a CDK1
Sequence of Cyclin-dependent kinase 1 (Homo sapiens) (P06493 whole entry, looked up): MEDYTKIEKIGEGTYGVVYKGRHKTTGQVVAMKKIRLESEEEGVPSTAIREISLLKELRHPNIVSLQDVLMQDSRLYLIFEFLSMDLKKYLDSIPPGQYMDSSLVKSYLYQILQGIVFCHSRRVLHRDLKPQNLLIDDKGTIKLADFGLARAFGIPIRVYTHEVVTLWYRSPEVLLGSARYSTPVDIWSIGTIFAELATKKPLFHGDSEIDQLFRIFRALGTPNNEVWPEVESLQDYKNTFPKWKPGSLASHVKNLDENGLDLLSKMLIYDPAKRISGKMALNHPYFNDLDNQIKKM

[10] = target: Serine/threonine-protein kinase 26 (Homo sapiens, UniProt Q9P289); experiment: Selectivity interaction (KinomeScan (DiscoverX)) EUB0000045b STK26
Sequence of Serine/threonine-protein kinase 26 (Q9P289 2-416 limits assumed): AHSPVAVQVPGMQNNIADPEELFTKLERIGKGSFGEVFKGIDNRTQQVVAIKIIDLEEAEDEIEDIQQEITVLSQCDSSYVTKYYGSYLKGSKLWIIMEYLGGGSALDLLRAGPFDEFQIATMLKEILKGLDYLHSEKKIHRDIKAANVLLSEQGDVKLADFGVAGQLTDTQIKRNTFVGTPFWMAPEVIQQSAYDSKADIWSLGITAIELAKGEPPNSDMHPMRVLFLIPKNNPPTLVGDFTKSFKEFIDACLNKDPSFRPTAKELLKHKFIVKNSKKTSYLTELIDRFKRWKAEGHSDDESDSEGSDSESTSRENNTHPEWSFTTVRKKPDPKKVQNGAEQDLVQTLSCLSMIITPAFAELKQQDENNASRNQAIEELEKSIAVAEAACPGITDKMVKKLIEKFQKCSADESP

[11] = target: Mitogen-activated protein kinase kinase kinase kinase 1 (Homo sapiens) (UniProt Q92918); experiment: Selectivity interaction (KinomeScan (DiscoverX)) EUB0000618a MAP4K1; conditions: at 10 µM
[12] = target: Ribosomal protein S6 kinase alpha-2 (Homo sapiens) (UniProt Q15349); experiment: Selectivity interaction (Upstate Kinase Profiler service (Millipore)) EUB0000056c RPS6KA2; conditions: at 1 µM
Sequence of Ribosomal protein S6 kinase alpha-2 (Homo sapiens) (Q15349 whole entry): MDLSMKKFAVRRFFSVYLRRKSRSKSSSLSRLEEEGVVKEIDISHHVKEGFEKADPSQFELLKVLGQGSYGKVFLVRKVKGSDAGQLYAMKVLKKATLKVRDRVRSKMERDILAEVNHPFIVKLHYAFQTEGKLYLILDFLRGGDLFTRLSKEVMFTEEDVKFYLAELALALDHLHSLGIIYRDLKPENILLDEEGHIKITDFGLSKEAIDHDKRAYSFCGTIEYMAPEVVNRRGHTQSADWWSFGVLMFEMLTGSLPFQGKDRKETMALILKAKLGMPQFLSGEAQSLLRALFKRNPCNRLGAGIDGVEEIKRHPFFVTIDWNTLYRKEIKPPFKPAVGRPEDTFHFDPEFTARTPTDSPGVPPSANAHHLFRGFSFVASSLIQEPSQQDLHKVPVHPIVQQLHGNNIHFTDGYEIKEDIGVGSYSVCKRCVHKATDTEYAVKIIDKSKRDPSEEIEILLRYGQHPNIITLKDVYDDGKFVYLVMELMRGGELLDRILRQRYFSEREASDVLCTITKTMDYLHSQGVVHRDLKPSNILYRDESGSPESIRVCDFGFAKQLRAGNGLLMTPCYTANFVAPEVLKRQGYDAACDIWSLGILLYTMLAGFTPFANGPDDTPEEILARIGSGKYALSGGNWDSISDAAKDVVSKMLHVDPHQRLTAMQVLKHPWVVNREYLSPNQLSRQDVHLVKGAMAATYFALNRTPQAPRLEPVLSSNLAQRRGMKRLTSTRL

[13] = target: Ribosomal protein S6 kinase alpha-6 (Homo sapiens, UniProt Q9UK32); experiment: Selectivity interaction (KinomeScan (DiscoverX)) EUB0000655a RPS6KA6; conditions: at 10 µM
Sequence of Ribosomal protein S6 kinase alpha-6 (Q9UK32 whole entry): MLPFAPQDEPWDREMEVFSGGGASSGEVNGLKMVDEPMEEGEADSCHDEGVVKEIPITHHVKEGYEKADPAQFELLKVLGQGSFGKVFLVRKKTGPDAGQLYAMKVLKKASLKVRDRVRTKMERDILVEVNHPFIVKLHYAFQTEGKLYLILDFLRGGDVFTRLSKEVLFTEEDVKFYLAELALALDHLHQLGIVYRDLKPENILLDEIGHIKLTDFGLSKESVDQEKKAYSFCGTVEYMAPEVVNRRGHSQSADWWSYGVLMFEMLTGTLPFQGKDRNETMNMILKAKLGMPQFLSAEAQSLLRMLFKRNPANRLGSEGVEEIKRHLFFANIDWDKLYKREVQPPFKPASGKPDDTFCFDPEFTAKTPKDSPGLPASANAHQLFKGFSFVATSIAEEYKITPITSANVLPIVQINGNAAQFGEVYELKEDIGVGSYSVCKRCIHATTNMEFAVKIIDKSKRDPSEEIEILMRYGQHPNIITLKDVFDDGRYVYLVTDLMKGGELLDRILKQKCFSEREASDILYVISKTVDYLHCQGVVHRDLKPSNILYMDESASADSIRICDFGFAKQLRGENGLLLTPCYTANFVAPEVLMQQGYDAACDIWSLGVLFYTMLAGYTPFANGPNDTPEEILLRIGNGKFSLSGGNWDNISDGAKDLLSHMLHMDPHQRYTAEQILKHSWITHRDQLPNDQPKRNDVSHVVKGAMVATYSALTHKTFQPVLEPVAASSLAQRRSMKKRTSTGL

[14] = target: cAMP-dependent protein kinase catalytic subunit beta (Homo sapiens) (UniProt P22694); experiment: Selectivity interaction (LanthaScreen Eu Kinase Binding Assay) EUB0001632a PRKACB; conditions: at 10 µM

**Q.** Which results are given for `COc1cc(Nc2nc(C)cc(-c3cnn4nc(OC)ccc34)n2)cc(C(F)(F)F)c1`?
**A.** % of control [1]: 75%; % of control [2]: 71%

**Q.** For `O=C(NOC[C@H](O)CO)c1ccc(F)c(F)c1Nc1ccc(I)cc1F`, which % of control [3] is on record?
**A.** 100%

**Q.** `CN(C)CCCOc1ccc(-c2cc(NCCCn3cccn3)nc(S(C)(=O)=O)n2)cc1` was tested. Which dTM [4] did it give?
**A.** < 2 K

**Q.** For `CCC(=O)N1CC[C@H](Nc2ncnc3c2CN(c2cnc(OC)c(C(F)(F)F)c2)CC3)C1` [LENIOLISIB], which IC50 [5] is on record?
**A.** > 30 µM

**Q.** What does the source list for `COCC(=O)NC/C=C/c1ccc2ncnc(Nc3ccc(Oc4ccc(C)nc4)c(C)c3)c2c1` [CP-724714]?
**A.** % of control [6]: 87%; % of control [7]: 97%

**Q.** How did the % of control [8] turn out when `CCC(=O)N1CCN(c2ccc(-n3c(=O)ccc4cnc5ccc(-c6cnc7ccccc7c6)cc5c43)cc2C(F)(F)F)CC1` was run?
**A.** 30%

**Q.** Which % of inhibition [9] does the source give for `Cc1cnc(Nc2ccc(F)cc2Cl)nc1-c1c[nH]c(C(=O)N[C@H](CO)c2cccc(Cl)c2)c1` here?
**A.** 7%

**Q.** How did the % of control ([10]; at 1 µM) turn out when `C=CC(=O)Nc1cc(-n2c(=O)ccc3cnc4ccc(-c5ccc(NS(C)(=O)=O)cc5)cc4c32)ccc1C` was run?
**A.** 100%

**Q.** And the % of control ([10]; at 10 µM)?
**A.** 90%

**Q.** `O[C@H]1CC[C@H](Nc2ncc3nc(Nc4c(F)cc(F)cc4F)n([C@H]4CCOC4)c3n2)CC1` was tested. Which % of control [11] did it give?
**A.** 83%

**Q.** For `Cc1ccc(-c2ccc3c(ccc4sc5c(c43)NC[C@@H](C)NC5=O)n2)cn1`, which % of inhibition [12] is on record?
**A.** 49%

**Q.** With `CN(C)CCOc1ccc(-c2nc(-c3ccncc3)c(-c3ccc4c(c3)CC/C4=N\O)[nH]2)cc1` as the compound, how does the % of control [13] read?
**A.** 88%

**Q.** With `Cn1cc(-n2cnc3c(NCc4nc5cc(Cl)c(Cl)cc5[nH]4)nc(N4CCOCC4)nc32)cn1` as the compound, how does the % of inhibition [14] read?
**A.** 4.17%
